From patent US10450347B2, “Immunomodulators” (BRISTOL-MYERS SQUIBB COMPANY, priority 2015, dated 2019) come the findings set out here.

Starred links: 1 amine or outer side, 2 acyl side, 3 side chain; linkers in the order of their positions; H or OH if unused. Positions of bridges follow the written chain, without caps; N, C: chain ends. Non-standard residues stand in square brackets, D forms with d. Residues, ends and D or L forms follow the SMILES beside them. ξ: configuration not given here. Tyrψ(CN4)Ala = C[C@@H](C(=O)[*:2])n1nnnc1[C@H](Cc1ccc(O)cc1)N[*:1]; X1 = CCCC[C@@H](C(=O)[*:2])n1nnnc1[C@H](Cc1c[nH]c2ccccc12)N[*:1]; Morpholine(3S-CO) = O=C(O)[C@@H]1COCCN1; Bta = N[C@@H](Cc1csc2ccccc12)C(=O)O; Hyp = O=C(O)[C@@H]1C[C@@H](O)CN1; NMeNle = CCCC[C@H](NC)C(=O)O; ξH = NC(Cc1c[nH]cn1)C(=O)O; NMeA = CN[C@@H](C)C(=O)O; Orn = NCCC[C@H](N)C(=O)O; Dab = NCC[C@H](N)C(=O)O; Dap = NC[C@H](N)C(=O)O; ξC = NC(CS)C(=O)O

In the experiment the target is T1, PD-1-Ig/PD-L1-His (Homo sapiens, UniProt Q9NZQ7).
T1 construct: [hPD-L1(19-239)-tobacco vein mottling virus protease cleavage site (TVMV)-His]; made in house; host or cells: HEK293T cells
Kind of experiment: PD-1/PD-L1 Homogenous Time-Resolved Fluorescence (HTRF) binding assay. To be noted: inhibition of PD-1-Ig binding to PD-L1-TVMV-His. From the text:
The ability of the macrocyclic peptides of the present disclosure to bind to PD-L1 was investigated using a PD-1/PD-L1 Homogenous Time-Resolved Fluorescence (HTRF) binding assay.
Homogenous Time-Resolved Fluorescence (HTRF) Assays of Binding of Soluble PD-1 to Soluble PD-L1. Soluble PD-1 and soluble PD-L1 refers to proteins with carboxyl-end truncations that remove the transmembrane-spanning regions and are fused to heterologous sequences, specifically the Fc portion of the human immunoglobuling G sequence (Ig) or the hexahistidine epitope tag (SEQ ID NO: 3) (His). All binding studies were performed in an HTRF assay buffer consisting of dPBS supplemented with 0.1% (w/v) bovine serum albumin and 0.05% (v/v) Tween-20. For the PD-1-Ig/PD-L1-His binding assay, inhibitors were pre-incubated with PD-L1-His (10 nM final) for 15 m in 4 μl of assay buffer, followed by addition of PD-1-Ig (20 nM final) in 1 μl of assay buffer and further incubation for 15 m. PD-L1 fusion proteins from either human, cynomologous macaques, mouse, or other species were used. HTRF detection was achieved using europium crypate-labeled anti-Ig monoclonal antibody (1 nM final) and allophycocyanin (APC) labeled anti-His monoclonal antibody (20 nM final). Antibodies were diluted in HTRF detection buffer and 5 μl was dispensed on top of binding reaction. The reaction was allowed to equilibrate for 30 minutes and signal (665 nm/620 nm ratio) was obtained using an EnVision fluorometer. Additional binding assays were established between PD-1-Ig/PD-L2-His (20 and 5 nM, respectively), CD80-His/PD-L1-Ig (100 and 10 nM, respectively) and CD80-His/CTLA4-Ig (10 and 5 nM, respectively). Binding/competition studies between biotinylated Compound No. 71 and human PD-L1-His were performed as follows. Macrocyclic peptide inhibitors were pre-incubated with PD-L1-His (10 nM final) for 60 minutes in 4 μl of assay buffer followed by addition of biotinylated Compound No. 71 (0.5 nM final) in 1 μl of assay buffer. Binding was allowed to equilibrate for 30 minutes followed by addition of europium crypated labeled Streptavidin (2.5 pM final) and APC-labeled anti-His (20 nM final) in 5 μl of HTRF buffer. The reaction was allowed to equilibrate for 30 m and signal (665 nm/620 nm ratio) was obtained using an EnVision fluorometer.
Recombinant Proteins. Carboxyl-truncated human PD-1 (amino acids 25-167) with a C-terminal human Ig epitope tag [hPD-1 (25-167)-3S-IG] and human PD-L1 (amino acids 18-239) with a C-terminal His epitope tag [hPD-L1(19-239)-tobacco vein mottling virus protease cleavage site (TVMV)-His] were expressed in HEK293T cells and purified sequentially by recombinant Protein A affinity chromatography and size exclusion chromatography. Human PD-L2-His (Sino Biologicals), CD80-His (Sino Biologicals), CTLA4-Ig (RnD Systems) were all obtained through commercial sources.
On the technique in general: TR-FRET usually uses a lanthanide donor and a delayed reading to cut background.

T1 sequence (Q9NZQ7 with tags, fused parts or gaps): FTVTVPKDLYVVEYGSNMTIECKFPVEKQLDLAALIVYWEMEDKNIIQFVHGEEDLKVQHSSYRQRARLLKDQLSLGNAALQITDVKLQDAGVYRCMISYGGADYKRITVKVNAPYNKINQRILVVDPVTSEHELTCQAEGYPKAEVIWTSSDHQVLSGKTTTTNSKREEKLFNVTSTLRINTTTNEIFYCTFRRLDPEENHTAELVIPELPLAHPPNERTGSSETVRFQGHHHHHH

The IC50 is the concentration that gives 50% inhibition. Higher therefore signals lower potency. For the setting “range classes”, `CCCC[C@H]1C(=O)N[C@@H](CCCN)C(=O)N[C@H](C(=O)NCC(N)=O)CSCC(=O)N[C@@H](Cc2ccc(O)cc2)C(=O)N(C)[C@@H](C)C(=O)N[C@@H](CC(N)=O)C(=O)N2CCC[C@H]2C(=O)N[C@@H](Cc2cnc[nH]2)C(=O)N[C@@H](CC(C)C)C(=O)N2C[C@H](O)C[C@H]2C(=O)N[C@@H](Cc2c[nH]c3ccccc23)C(=O)N[C@@H](CO)C(=O)N[C@@H](Cc2c[nH]c3ccccc23)c2nnnn2[C@@H](CCCC)C(=O)N1C` [Example 1050] ({CH2CO}-Y[NMeA]NPHL[Hyp]WS[X1][NMeNle][Orn]CG-NH2; thioether N-13) returned an IC50 of 100 to 10000 nM.
As for `CCCC[C@H]1C(=O)N[C@@H](CCCN)C(=O)N[C@H](C(=O)NCC(N)=O)CSCC(=O)N[C@@H](Cc2ccc(O)cc2)C(=O)N(C)[C@@H](C)C(=O)N[C@@H](CC(N)=O)C(=O)N2CCC[C@H]2C(=O)N[C@@H](CN)C(=O)N[C@@H](CC(C)C)C(=O)N2C[C@H](O)C[C@H]2C(=O)N[C@@H](Cc2c[nH]c3ccccc23)C(=O)N[C@@H](CO)C(=O)N[C@@H](Cc2c[nH]c3ccccc23)c2nnnn2[C@@H](CCCC)C(=O)N1C` [Example 1051] ({CH2CO}-Y[NMeA]NP[Dap]L[Hyp]WS[X1][NMeNle][Orn]CG-NH2; thioether N-13), the IC50 (range classes) is 100 to 10000 nM.
As to `CCCC[C@H]1C(=O)N[C@@H](CCCNC(=N)N)C(=O)N[C@H](C(=O)NCC(N)=O)CSCC(=O)N[C@@H](Cc2ccc(O)cc2)C(=O)N(C)[C@@H](C)C(=O)N[C@@H](CC(N)=O)C(=O)N2CCC[C@H]2C(=O)N[C@@H](Cc2cnc[nH]2)C(=O)N[C@@H](CC(C)C)C(=O)N2C[C@H](O)C[C@H]2C(=O)N[C@@H](Cc2c[nH]c3ccccc23)C(=O)N[C@@H](CO)C(=O)N[C@@H](Cc2cccc3ccccc23)c2nnnn2[C@@H](CCCC)C(=O)N1C` [Example 1052], where the note is “range classes”, the IC50 lay in the range of 10 to 99 nM.
`CCCC[C@H]1C(=O)N[C@@H](CCC(=O)O)C(=O)N[C@H](C(=O)NCC(N)=O)CSCC(=O)N[C@@H](Cc2ccc(O)cc2)C(=O)N2CCOC[C@H]2C(=O)N[C@@H](CC(N)=O)C(=O)N2CCC[C@H]2C(=O)N[C@@H](CN)C(=O)N[C@@H](CC(C)C)C(=O)N2C[C@H](O)C[C@H]2C(=O)N[C@@H](Cc2c[nH]c3ccccc23)C(=O)N[C@@H](CO)C(=O)N[C@@H](Cc2c[nH]c3ccccc23)c2nnnn2[C@@H](CCCC)C(=O)N1C` [Example 1053] ({CH2CO}-Y[Morpholine(3S-CO)]NP[Dap]L[Hyp]WS[X1][NMeNle]ECG-NH2; thioether N-13) yielded a concentration for half-maximal inhibition (IC50) (range classes) of 10 to 99 nM.
The same measure, in the same setting: to `CCCC[C@H]1C(=O)N[C@@H](CCCN)C(=O)NC(C(=O)NCC(N)=O)CSCC(=O)N[C@@H](Cc2ccc(O)cc2)C(=O)N2CCOC[C@H]2C(=O)N[C@@H](CC(N)=O)C(=O)N2CCC[C@H]2C(=O)N[C@@H](CN)C(=O)N[C@@H](CC(C)C)C(=O)N2C[C@H](O)C[C@H]2C(=O)N[C@@H](Cc2c[nH]c3ccccc23)C(=O)N[C@@H](CO)C(=O)N[C@@H](Cc2c[nH]c3ccccc23)c2nnnn2[C@@H](CCCC)C(=O)N1C` (stereo partly drawn) [Example 1054] ({CH2CO}-Y[Morpholine(3S-CO)]NP[Dap]L[Hyp]WS[X1][NMeNle][Orn][ξC]G-NH2; thioether N-13) belongs 100 to 10000 nM.
Consider `CCCC[C@H]1C(=O)N[C@@H](C)C(=O)N[C@H](C(=O)NCC(N)=O)CSCC(=O)N[C@@H](Cc2ccc(O)cc2)C(=O)N2CCOC[C@H]2C(=O)N[C@@H](CC(N)=O)C(=O)N2CCC[C@H]2C(=O)N[C@@H](CN)C(=O)N[C@@H](CC(C)C)C(=O)N2C[C@H](O)C[C@H]2C(=O)N[C@@H](Cc2c[nH]c3ccccc23)C(=O)N[C@@H](CO)C(=O)N[C@@H](Cc2c[nH]c3ccccc23)c2nnnn2[C@@H](CCCC)C(=O)N1C` [Example 1055] ({CH2CO}-Y[Morpholine(3S-CO)]NP[Dap]L[Hyp]WS[X1][NMeNle]ACG-NH2; thioether N-13), for which, for the setting “numeric values”, the 50% inhibitory concentration (IC50) amounted to 8 nM.
Compound `CCCC[C@H]1C(=O)N(C)[C@@H](CCCC)C(=O)N[C@@H](CCC(=O)O)C(=O)N[C@H](C(=O)NCC(N)=O)CSCC(=O)N[C@@H](Cc2ccc(O)cc2)c2nnnn2[C@@H](C)C(=O)N[C@@H](CC(=O)O)C(=O)N2CCC[C@H]2C(=O)N[C@@H](CN)C(=O)N[C@@H](CCC(=O)O)C(=O)N2C[C@H](O)C[C@H]2C(=O)N[C@@H](Cc2c[nH]c3ccccc23)C(=O)N[C@@H](CCN)C(=O)N[C@@H](Cc2c[nH]c3ccccc23)C(=O)N1C` [Example 1056] ({CH2CO}-[Tyrψ(CN4)Ala]DP[Dap]E[Hyp]W[Dab]W[NMeNle][NMeNle]ECG-NH2; thioether N-13) had an IC50 (range classes) of 100 to 10000 nM.
Same read-out and setting: the result for `CCCC[C@H]1C(=O)N(C)[C@@H](CCCC)C(=O)N[C@@H](CC(C)C)C(=O)N[C@H](C(=O)NCC(N)=O)CSCC(=O)N[C@@H](Cc2ccc(O)cc2)c2nnnn2[C@@H](C)C(=O)N[C@@H](CC(N)=O)C(=O)N2CCC[C@H]2C(=O)N[C@@H](Cc2cnc[nH]2)C(=O)N[C@@H](CCC(N)=O)C(=O)N2C[C@H](O)C[C@H]2C(=O)N[C@@H](Cc2c[nH]c3ccccc23)C(=O)N[C@@H](CO)C(=O)N[C@@H](Cc2c[nH]c3ccccc23)C(=O)N1C` [Example 1057] ({CH2CO}-[Tyrψ(CN4)Ala]NPHQ[Hyp]WSW[NMeNle][NMeNle]LCG-NH2; thioether N-13) reads 100 to 10000 nM; that for `CCCC[C@H]1C(=O)N[C@@H](CN)C(=O)N[C@H](C(=O)NCC(N)=O)CSCC(=O)N[C@@H](Cc2ccc(O)cc2)C(=O)N2CCCC[C@H]2C(=O)N[C@@H](CC(N)=O)C(=O)N2CCC[C@H]2C(=O)N[C@@H](CN)C(=O)N[C@@H](CCC(=O)O)C(=O)N2C[C@H](O)C[C@H]2C(=O)N[C@@H](Cc2c[nH]c3ccccc23)C(=O)N[C@@H](CCN)C(=O)N[C@@H](Cc2cccc3ccccc23)c2nnnn2[C@@H](CCCC)C(=O)N1C` [Example 1059], 10 to 99 nM; that for `CCCC[C@H]1C(=O)N(C)[C@@H](CCCC)C(=O)N[C@@H](CC(C)C)C(=O)N[C@H](C(=O)NCC(=O)O)CSCC(=O)N[C@@H](Cc2ccc(O)cc2)c2nnnn2[C@@H](C)C(=O)N[C@@H](CC(N)=O)C(=O)N2CCC[C@H]2C(=O)NC(Cc2c[nH]cn2)C(=O)N[C@@H](CCC(N)=O)C(=O)N2C[C@H](O)C[C@H]2C(=O)N[C@@H](Cc2c[nH]c3ccccc23)C(=O)N[C@@H](CO)C(=O)N[C@@H](Cc2csc3ccccc23)C(=O)N1C` (stereo partly shown) [Example 1061] ({CH2CO}-[Tyrψ(CN4)Ala]NP[ξH]Q[Hyp]WS[Bta][NMeNle][NMeNle]LCG-OH; thioether N-13), 100 to 10000 nM.
The same measure, in the same setting: the result for `CCCC[C@H]1C(=O)N[C@@H](C)C(=O)N[C@H](C(=O)NCC(N)=O)CSCC(=O)N[C@@H](Cc2ccc(O)cc2)C(=O)N(C)[C@@H](C)C(=O)N[C@@H](CC(N)=O)C(=O)N2CCC[C@H]2C(=O)N[C@@H](CN)C(=O)N[C@@H](CC(C)C)C(=O)N2C[C@H](O)C[C@H]2C(=O)N[C@@H](Cc2c[nH]c3ccccc23)C(=O)N[C@@H](CO)C(=O)N[C@@H](Cc2c[nH]c3ccccc23)c2nnnn2[C@@H](CCCC)C(=O)N1C` [Example 1100] ({CH2CO}-Y[NMeA]NP[Dap]L[Hyp]WS[X1][NMeNle]ACG-NH2; thioether N-13) reads 100 to 10000 nM.
In turn, `CCCC[C@H]1C(=O)N[C@@H](CCC(=O)O)C(=O)N[C@H](C(=O)NCC(N)=O)CSCC(=O)N[C@@H](Cc2ccc(O)cc2)C(=O)N(C)[C@@H](C)C(=O)N[C@@H](CC(=O)O)C(=O)N2CCC[C@H]2C(=O)N[C@@H](CN)C(=O)N[C@@H](CCC(=O)O)C(=O)N2C[C@H](O)C[C@H]2C(=O)N[C@@H](Cc2c[nH]c3ccccc23)C(=O)N[C@@H](CO)C(=O)N[C@@H](Cc2c[nH]c3ccccc23)c2nnnn2[C@@H](CCCC)C(=O)N1C` [Example 1101] ({CH2CO}-Y[NMeA]DP[Dap]E[Hyp]WS[X1][NMeNle]ECG-NH2; thioether N-13) gave a concentration for half-maximal inhibition (IC50) (range classes) of 100 to 10000 nM.
On the same count and under the same terms, to `CCCC[C@H]1C(=O)N[C@@H](CCC(=O)O)C(=O)N[C@H](C(=O)NCC(N)=O)CSCC(=O)N[C@@H](Cc2ccc(O)cc2)C(=O)N(C)[C@@H](C)C(=O)N[C@@H](CC(N)=O)C(=O)N2CCC[C@H]2C(=O)N[C@@H](CN)C(=O)N[C@@H](CC(C)C)C(=O)N2C[C@H](O)C[C@H]2C(=O)N[C@@H](Cc2c[nH]c3ccccc23)C(=O)N[C@@H](CO)C(=O)N[C@@H](Cc2c[nH]c3ccccc23)c2nnnn2[C@@H](CCCC)C(=O)N1C` [Example 1102] ({CH2CO}-Y[NMeA]NP[Dap]L[Hyp]WS[X1][NMeNle]ECG-NH2; thioether N-13) belongs 100 to 10000 nM.
